From patent US20240058464A1 (Fortis Therapeutics, Inc., priority 2021, published 2024)

Columns and labels:
CD46 expression [1] = assay: CD46 expression by RNA-sequencing in paired tumor biopsies before and after therapy; details: paired biopsies; for CD46 expression, Post-Treatment Biopsy / CD46 expression, Pre-Treatment Biopsy: RNA-seq log2-transformed counts;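 on all read-outs here: FFPE human tumor biopsies, exome-capture RNA-seq, reads aligned to GRCh37, counts normalized for GC content, length and depth, summed per gene, log2-transformed, samples paired before versus after therapy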
Procedure: Gene expression was determined by RNA-sequencing from formalin-fixed, paraffin-embedded (FFPE) tumor samples using an exome capture-based protocol. Briefly, total nucleic acid was extracted from FFPE solid tumor samples. The RNA sample was treated with DNAse and reverse transcribed. cDNA was captured with a custom probe set targeting the human exome. A library was prepared from the captured cDNA and sequenced on the Illumina platform. Sequence read were aligned to GRCh37 using Kallisto and normalized to quantify gene expression. Specifically, transcript counts were corrected for GC content and length using quantile normalization and adjusted for sequencing depth via a size factor method. Normalized counts in protein coding transcripts covered by the exome panel were then summed to obtain gene-level counts. Subsequent expression analyses were performed on log2-transformed counts.

CD46 expression [2] = assay: CD46 expression by RNA-sequencing in unpaired pre-treatment and post-treatment tumor biopsies; assay type: in vivo, human; details: for CD46 expression Post: post-treatment biopsies
[3] = Breast Cancer, Post minus Pre, unpaired biopsies, log2-transformed counts
[4] = Breast Cancer, post- vs pre-treatment unpaired biopsies
[5] = Breast Cancer, unpaired, RNA-seq log2-transformed normalized counts
[6] = Colorectal Cancer, Post minus Pre, unpaired biopsies, log2-transformed counts
[7] = Colorectal Cancer, post- vs pre-treatment unpaired biopsies
[8] = Colorectal Cancer, unpaired, RNA-seq log2-transformed normalized counts
[9] = Esophageal Cancer, Post minus Pre, unpaired biopsies, log2-transformed counts
[10] = Esophageal Cancer, post- vs pre-treatment unpaired biopsies
[11] = Esophageal Cancer, unpaired, RNA-seq log2-transformed normalized counts
[12] = Prostate Cancer, Post minus Pre, unpaired biopsies, log2-transformed counts
[13] = Prostate Cancer, post- vs pre-treatment unpaired biopsies

In the case of `N.N.O=C([O-])C1(C(=O)[O-])CCC1.[Pt+2]` [carboplatin], the “CD46 expression diff (post minus pre)” value (CD46 expression [1]; Breast Cancer) is reported as −0.08, the “Percent Change in CD46 expression” value (CD46 expression [1]; Breast Cancer) is reported as −1.2% and the “CD46 expression, Post-Treatment Biopsy” value (CD46 expression [1]; Breast Cancer) is reported as 6.06. The “CD46 expression, Pre-Treatment Biopsy” value (CD46 expression [1]; Breast Cancer) was 6.14, the “CD46 expression diff (post minus pre)” value (CD46 expression [1]; Endometrial Cancer) was 0.30 and the “Percent Change in CD46 expression” value (CD46 expression [1]; Endometrial Cancer) was 5.1%. For the same compound, the “CD46 expression, Pre-Treatment Biopsy” value (CD46 expression [1]; Endometrial Cancer) was 5.95, the “CD46 expression diff (post minus pre)” value (CD46 expression [1]; Non-Small Cell Lung Cancer) was −0.06 and the “Percent Change in CD46 expression” value (CD46 expression [1]; Non-Small Cell Lung Cancer) was −1.0%. For the same compound, the “CD46 expression, Post-Treatment Biopsy” value (CD46 expression [1]; Non-Small Cell Lung Cancer) was 6.07, the “CD46 expression diff (post minus pre)” value (CD46 expression [1]; Ovarian Cancer) was 0.01 and the “Percent Change in CD46 expression” value (CD46 expression [1]; Ovarian Cancer) was 0.2%. For the same compound, the “CD46 expression, Post-Treatment Biopsy” value (CD46 expression [1]; Ovarian Cancer) was 5.67, the “CD46 expression, Pre-Treatment Biopsy” value (CD46 expression [1]; Ovarian Cancer) was 5.66 and the CD46 expression diff (CD46 expression [2]; Bladder Cancer, Post minus Pre, unpaired biopsies, log2-transformed counts) was 0.14. The “CD46 expression Percentage change” value (CD46 expression [2]; Bladder Cancer, post- vs pre-treatment unpaired biopsies) was 2.3%, the “CD46 expression Post” value (CD46 expression [2]; Bladder Cancer, unpaired, RNA-seq log2-transformed normalized counts) was 6.12 and the CD46 expression diff (CD46 expression [2]; [3]) was −0.07. For the same compound, the “CD46 expression Percentage change” value (CD46 expression [2]; [4]) was −1.1%, the “CD46 expression Post” value (CD46 expression [2]; [5]) was 6.00 and the CD46 expression diff (CD46 expression [2]; [6]) was 0.59. For the same compound, the “CD46 expression Percentage change” value (CD46 expression [2]; [7]) was 10.3%, the “CD46 expression Post” value (CD46 expression [2]; [8]) was 6.35 and the CD46 expression diff (CD46 expression [2]; Endocrine Tumor, Post minus Pre, unpaired biopsies, log2-transformed counts) was 0.22. The “CD46 expression Percentage change” value (CD46 expression [2]; Endocrine Tumor, post- vs pre-treatment unpaired biopsies) was 3.9%, the “CD46 expression Post” value (CD46 expression [2]; Endocrine Tumor, unpaired, RNA-seq log2-transformed normalized counts) was 5.90 and the CD46 expression diff (CD46 expression [2]; Endometrial Cancer, Post minus Pre, unpaired biopsies, log2-transformed counts) was 0.01. The “CD46 expression Percentage change” value (CD46 expression [2]; Endometrial Cancer, post- vs pre-treatment unpaired biopsies) was 0.2%, the “CD46 expression Post” value (CD46 expression [2]; Endometrial Cancer, unpaired, RNA-seq log2-transformed normalized counts) was 5.83 and the CD46 expression diff (CD46 expression [2]; [9]) was −0.11. The “CD46 expression Percentage change” value (CD46 expression [2]; [10]) was −1.8%, the “CD46 expression Post” value (CD46 expression [2]; [11]) was 5.79 and the CD46 expression diff (CD46 expression [2]; Head and Neck Squamous Cell Carcinoma, Post minus Pre, unpaired biopsies, log2-transformed counts) was 0.11. For the same compound, the “CD46 expression Percentage change” value (CD46 expression [2]; Head and Neck Squamous Cell Carcinoma, post- vs pre-treatment unpaired biopsies) was 2.0%, the “CD46 expression Post” value (CD46 expression [2]; Head and Neck Squamous Cell Carcinoma, unpaired, RNA-seq log2-transformed normalized counts) was 5.69 and the CD46 expression diff (CD46 expression [2]; Non-Small Cell Lung Cancer, Post minus Pre, unpaired biopsies, log2-transformed counts) was −0.08. For the same compound, the “CD46 expression Percentage change” value (CD46 expression [2]; Non-Small Cell Lung Cancer, post- vs pre-treatment unpaired biopsies) was −1.2%, the “CD46 expression Post” value (CD46 expression [2]; Non-Small Cell Lung Cancer, unpaired, RNA-seq log2-transformed normalized counts) was 6.10 and the CD46 expression diff (CD46 expression [2]; Ovarian Cancer, Post minus Pre, unpaired biopsies, log2-transformed counts) was −0.01. For the same compound, the “CD46 expression Percentage change” value (CD46 expression [2]; Ovarian Cancer, post- vs pre-treatment unpaired biopsies) was −0.2%, the “CD46 expression Post” value (CD46 expression [2]; Ovarian Cancer, unpaired, RNA-seq log2-transformed normalized counts) was 5.73 and the CD46 expression diff (CD46 expression [2]; [12]) was −0.03. The “CD46 expression Percentage change” value (CD46 expression [2]; [13]) was −0.5% and the “CD46 expression Post” value (CD46 expression [2]; Prostate Cancer, unpaired, RNA-seq log2-transformed normalized counts) was 5.92.
`CC(O)(CS(=O)(=O)c1ccc(F)cc1)C(=O)Nc1ccc(C#N)c(C(F)(F)F)c1` (stereo not drawn) [bicalutamide] was tested, and the “CD46 expression diff (post minus pre)” value (CD46 expression [1]; Prostate Cancer) was −0.24, the “Percent Change in CD46 expression” value (CD46 expression [1]; Prostate Cancer) was −3.8% and the “CD46 expression, Post-Treatment Biopsy” value (CD46 expression [1]; Prostate Cancer) was 6.08. For the same compound, the CD46 expression diff (CD46 expression [2]; [12]) was −0.06 and the “CD46 expression Percentage change” value (CD46 expression [2]; [13]) was −0.9%.
For `Nc1nc2c(c(=O)[nH]1)N(C=O)C(CNc1ccc(C(=O)N[C@@H](CCC(=O)O)C(=O)O)cc1)CN2` (stereo partly drawn) [leucovorin], the “CD46 expression diff (post minus pre)” value (CD46 expression [1]; Colorectal Cancer) was −0.07, the “Percent Change in CD46 expression” value (CD46 expression [1]; Colorectal Cancer) was −1.0% and the “CD46 expression, Post-Treatment Biopsy” value (CD46 expression [1]; Colorectal Cancer) was 6.30. The “CD46 expression diff (post minus pre)” value (CD46 expression [1]; Esophageal Cancer) was −0.14, the “Percent Change in CD46 expression” value (CD46 expression [1]; Esophageal Cancer) was −2.3% and the “CD46 expression, Post-Treatment Biopsy” value (CD46 expression [1]; Esophageal Cancer) was 5.74. The “CD46 expression diff (post minus pre)” value (CD46 expression [1]; Pancreatic Cancer) was 0.09, the “Percent Change in CD46 expression” value (CD46 expression [1]; Pancreatic Cancer) was 1.5% and the “CD46 expression, Post-Treatment Biopsy” value (CD46 expression [1]; Pancreatic Cancer) was 5.92. For the same compound, the CD46 expression diff (CD46 expression [2]; Biliary Cancer, Post minus Pre, unpaired biopsies, log2-transformed counts) was 0.00, the “CD46 expression Percentage change” value (CD46 expression [2]; Biliary Cancer, post- vs pre-treatment unpaired biopsies) was 0.1% and the “CD46 expression Post” value (CD46 expression [2]; Biliary Cancer, unpaired, RNA-seq log2-transformed normalized counts) was 5.92. For the same compound, the CD46 expression diff (CD46 expression [2]; [6]) was 0.08, the “CD46 expression Percentage change” value (CD46 expression [2]; [7]) was 1.2% and the “CD46 expression Post” value (CD46 expression [2]; [8]) was 6.46. The CD46 expression diff (CD46 expression [2]; [9]) was −0.05, the “CD46 expression Percentage change” value (CD46 expression [2]; [10]) was −0.9% and the “CD46 expression Post” value (CD46 expression [2]; [11]) was 5.84. For the same compound, the CD46 expression diff (CD46 expression [2]; Gastric Cancer, Post minus Pre, unpaired biopsies, log2-transformed counts) was −0.11, the “CD46 expression Percentage change” value (CD46 expression [2]; Gastric Cancer, post- vs pre-treatment unpaired biopsies) was −1.8% and the “CD46 expression Post” value (CD46 expression [2]; Gastric Cancer, unpaired, RNA-seq log2-transformed normalized counts) was 5.68. For the same compound, the CD46 expression diff (CD46 expression [2]; Pancreatic Cancer, post minus pre, unpaired biopsies) was −0.15, the “CD46 expression Percentage change” value (CD46 expression [2]; Pancreatic Cancer, post vs pre, unpaired biopsies) was −2.5% and the “CD46 expression Post” value (CD46 expression [2]; Pancreatic Cancer, log2-transformed RNA-seq counts) was 5.76.
In the case of `C=C1C[C@@H]2CC[C@@]34C[C@H]5O[C@H]6[C@@H](O3)[C@H]3O[C@H](CC[C@@H]3O[C@H]6[C@H]5O4)CC(=O)C[C@@H]3[C@@H](OC)[C@@H](C[C@H](O)CN)O[C@H]3C[C@H]3O[C@@H](CC[C@@H]1O2)C[C@@H](C)C3=C` [eribulin], the “CD46 expression diff (post minus pre)” value (CD46 expression [1]; Breast Cancer) is reported as −0.54, the “Percent Change in CD46 expression” value (CD46 expression [1]; Breast Cancer) is reported as −8.4% and the “CD46 expression, Post-Treatment Biopsy” value (CD46 expression [1]; Breast Cancer) is reported as 5.92. For the same compound, the CD46 expression diff (CD46 expression [2]; [3]) was 0.11, the “CD46 expression Percentage change” value (CD46 expression [2]; [4]) was 1.8% and the “CD46 expression Post” value (CD46 expression [2]; [5]) was 6.20.
`C=CC(=O)Nc1cc(Nc2nccc(-c3cn(C)c4ccccc34)n2)c(OC)cc1N(C)CCN(C)C` [osimertinib] was tested, and the “CD46 expression diff (post minus pre)” value (CD46 expression [1]; Non-Small Cell Lung Cancer) was −0.26, the “Percent Change in CD46 expression” value (CD46 expression [1]; Non-Small Cell Lung Cancer) was −4.0% and the CD46 expression diff (CD46 expression [2]; Non-Small Cell Lung Cancer, post minus pre, unpaired biopsies) was −0.29. The “CD46 expression Percentage change” value (CD46 expression [2]; Non-Small Cell Lung Cancer, post vs pre, unpaired biopsies) was −4.4% and the “CD46 expression Post” value (CD46 expression [2]; Non-Small Cell Lung Cancer, log2-transformed RNA-seq counts) was 6.23.
